Measured values reported in patent US6492360B1, “Phthalazine derivatives phosphodiesterase 4 inhibitors” (Zambon Group S.p.A., priority 1998, dated 2002).

Experiments:
PDE 4 = PDE 4 enzyme inhibition (SPA); assay type: biochemical; conditions: PDE 4 purified from human PMNs; cAMP 1 μM
Method: a) Human Polymorphonuclear Leukocyte Isolation
The polymorphonuclear leukocytes (PMNs) were isolated from peripheral blood of healthy volunteers according to Boyum A. (Scand. J. Immunol., 1976, 5th suppl., 9). Briefly, the PMNs were purified by Ficoll-Paque gradient centrifugation followed by sedimentation on dextran and the erythrocyte contamination was eliminated by hypotonic lysis.
b) PDE 4 Enzyme Purification
The human PMNs were suspended in TRIS/HCl buffer (10 mM, pH 7.8) containing MgCl2 (5 mM), EGTA (4 mM), mercaptoethanol (5 mM), TRITON-X100 (1%), pepstatin A (1 μM), PMSF (100 μM) and leupeptin (1 μM), and homogenised by Polytron homogeniser. The homogenate was centrifuged at 25,000×g for 30 minutes at 4° C. and the PDE 4 enzyme was purified by ion exchange chromatography using the FPLC technique according to Schudt C. et al. (Naunyn-Schmidberg's Arch. Pharmacol., 1991, 334, 682). The supernatant was seeded on a UNO Q12 column (Bio-Rad) and the enzyme was eluted by sodium acetate linear gradient from 50 mM to 1M using a flow rate of 4.5 ml/minutes. The fractions containing enzymatic activity were pooled, dialysed against water and concentrated. The PDE 4 enzyme was stored at, −20° C. in the presence of ethylene glycol (30% v/v) until the use.
The enzyme activity was evaluated with a Scintillation Proximity Assay (SPA) kit (Amersham). The enzymatic reaction was performed in a final volume of 100 μl of TRIS/HCl buffer (50 mM, pH 7.5), MgCl2 (8.3 mM), EGTA (1.7 mM), cAMP (1 μM) and [^3H]cAMP (˜100.000 dpm) as tracer. The compounds of the invention, the reference ones or the vehicle were added at different concentrations. As reference compounds 6,7-dimethoxy-4-pyridin-4-yl-methyl)2H-phthalazin-1-one (reference 1) and 6,7-dimethoxy-4-(piperidin-4-yl-methyl)2H-phthalazin-1-one (reference 2) embraced by the general formula of the patent application EP-0 722 936 (in the name of Eisai) were used. The reaction was started by adding 1.5 μg protein and incubated for 40 minutes at 30° C. SPA beads (50 μl) containing 18 mM zinc sulphate were added to stop the reaction and after 20 minutes at room temperature the radioactivity was measured using a scintillation counter.
The IC50 value refers to the nanomolar concentration of the compound required to inhibit cyclic nucleotide hydrolysis by 50%, and it was calculated by non-linear regression analysis.

[1] = test system: TNFα release from human monocytes; assay: TNFα release inhibition in LPS-stimulated monocytes; assay type: cell-based; conditions: Monocyte, LPS 1 ng/ml, 16 hours, ELISA
Method: a) Human Monocyte Isolation
The monocytes were isolated from peripheral blood of healthy volunteers according to the procedure of Schreek L. et al. (J. Natl. Cancer Inst., 1964, 32, 507). The monocyte and lymphocyte population was isolated by Ficoll gradient centrifugation, and the cells diluted at a density of 2.5×10^6 cells/ml in RPMI1640 incubation medium containing 1% heat-inactivated foetal calf serum, penicillin (100 U/ml) and streptomycin (100 μg/ml) were plated in 24-wells plates (1 ml/well) and left to adhere for 1 hour at 37° C. with 5% CO2. Non-adherent lymphocytes were removed by aspiration and the monocytes adhered to the plate were used in the next step.
The TNFα release from human monocytes was measured according to the method of Barnette M. et al. (Biochemical Pharmacology, 1996, 51, 949). The monocytes were incubated for 1 hour with 1 ml of RPMI1640 incubation medium (1% beat-inactivated foetal calf serum, 100 U/ml penicillin and 100 μg/ml streptomyc in) containing different concentrations of the products according to the present invention or the vehicle for the controls. The TNFα release from monocytes was induced by adding 1 ng/ml of LPS (lipopolysaccharide from E. Coli) and after 16 hours of incubation at 37° C., 5% CO2, the incubation medium was removed, centrifuged and the supernatant stored at −80° C. until TNFα assay by ELISA kit (Amersham). The results are expressed as IC50 following the same calculation explained in example 147.

PDE 3 = molecular target: T1, PDE 3 (Homo sapiens, UniProt Q14432); assay: PDE 3 enzyme inhibition (SPA); assay type: biochemical; conditions: 10^−6 M; PDE 3 from human platelets; cAMP
T1 construct: The fractions containing the enzymatic activities (PDE 3 or PDE 5) were pooled; from tissue; host or cells: human platelets from platelet rich plasma of healthy volunteers
T1 sequence (Q14432 whole entry): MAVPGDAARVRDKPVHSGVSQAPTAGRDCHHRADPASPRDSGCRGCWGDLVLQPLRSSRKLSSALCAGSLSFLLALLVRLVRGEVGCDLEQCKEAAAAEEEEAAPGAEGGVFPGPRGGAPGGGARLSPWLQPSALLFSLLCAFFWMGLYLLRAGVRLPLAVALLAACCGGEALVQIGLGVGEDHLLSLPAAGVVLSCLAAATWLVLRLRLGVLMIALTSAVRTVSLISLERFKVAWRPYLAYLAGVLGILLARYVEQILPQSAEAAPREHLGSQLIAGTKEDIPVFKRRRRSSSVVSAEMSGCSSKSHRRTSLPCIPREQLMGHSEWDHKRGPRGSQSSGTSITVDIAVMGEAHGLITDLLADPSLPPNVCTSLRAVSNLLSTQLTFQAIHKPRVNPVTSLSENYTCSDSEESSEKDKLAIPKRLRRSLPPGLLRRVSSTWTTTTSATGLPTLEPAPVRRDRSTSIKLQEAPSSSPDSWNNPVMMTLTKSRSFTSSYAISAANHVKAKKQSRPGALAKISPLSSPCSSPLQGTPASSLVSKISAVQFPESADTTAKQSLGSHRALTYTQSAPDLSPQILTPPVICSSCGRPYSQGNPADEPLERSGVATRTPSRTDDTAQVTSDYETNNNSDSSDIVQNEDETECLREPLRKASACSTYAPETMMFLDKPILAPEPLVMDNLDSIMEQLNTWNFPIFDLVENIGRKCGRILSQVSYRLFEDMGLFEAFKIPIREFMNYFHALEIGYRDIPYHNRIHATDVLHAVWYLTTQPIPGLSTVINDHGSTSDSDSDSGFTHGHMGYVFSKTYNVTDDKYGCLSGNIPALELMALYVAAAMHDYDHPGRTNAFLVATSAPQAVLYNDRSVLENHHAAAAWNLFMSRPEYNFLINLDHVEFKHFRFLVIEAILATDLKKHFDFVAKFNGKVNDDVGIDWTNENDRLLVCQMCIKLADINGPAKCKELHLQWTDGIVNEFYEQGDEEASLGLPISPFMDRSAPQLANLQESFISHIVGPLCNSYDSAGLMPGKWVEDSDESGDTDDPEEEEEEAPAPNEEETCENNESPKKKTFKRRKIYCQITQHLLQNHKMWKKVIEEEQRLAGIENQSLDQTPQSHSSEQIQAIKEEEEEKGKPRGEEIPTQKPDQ
Method: (§1) a) Human Platelet Preparation
(§2) Human platelets were prepared from platelet rich plasma (PRP) obtained from healthy volunteers. The PRP was centrifuiged at 2,200 rpm for 15 minutes at 4° C. and the pellet was suspended in lysis solution (15 ml; 155 mM NH4Cl, 10 mM KHCO3 and 0.1 mM Na2EDTA, pH=7.4) and incubated for 10 minutes on ice-bath to remove the erythrocyte contamination. After centrifugation at 1,400 rpm for 10 minutes at 4° C., platelets were suspended in 10 ml of […], 5 mM KCl, 1 mM MgSO4, 10 mM glucose, 10 mM HEPES (pH 7.4) and 0.05 U/ml of hirudin, and stored at −20° C. until homogenisation. Platelets were thawed and 50 ml of 20 mM TRIS (pH=6.5) containing 5 mM β-mercapto-ethanol, 2 mM EDTA, 50 mM sodium acetate and 50 μM PMSF (homogenisation buffer) were added. The platelet suspension was then homogenised by a Polytron homogeniser (Polytron PT 1200) for 20 seconds. The homogenate was centrifuged at 14,500 rpm for 20 minutes at 4° C., and the supernatant was applied to an UNO Q12 column (Bio-Rad). The PDE 3 and PDE 5 were eluted by sodium acetate linear gradient from 0.05M to 1M using a flow rate of 4.5 ml/minutes. The fractions containing the enzymatic activities (PDE 3 or PDE 5) were pooled, dialysed against water and concentrated 10 times by ultrafiltration. The PDE 3 and PDE 5 fractions were stored at −20° C. in the presence of ethylene glycol (30% v/v) until use.
(§3) b) PDE 3 and PDE 5 Activity Assay
(§4) The enzyme activity was evaluated with a Scintillation Proximity Assay (SPA) kit (Amersham). The enzymatic reaction was performed in a final volume of 100 μl of TRIS/HCl buffer (50 mM, pH7.5), MgCl2 (8.3 mM), EGTA (1.7 mM), cAMP (for PDE 3 assay) or cGMP (for PDE 5 assay) (1 μM), [^3H]cAMP or [^3H]cGMP (10 μl ), and 10 μl of the compounds of the invention or vehicle. The reaction was started by adding the enzyme (1.0 μg) and incubated for 40 minutes at 30° C. SPA beads (50 μl) containing 18 mM zinc sulphate were added to stop the reaction and after 20 minutes at room temperature the radioacticity was measured using a scintillation counter.
(§5) The compounds were tested at 10^−6M and the results are expressed as percent of inhibition.

PDE 5 = molecular target: T2, PDE 5 (Homo sapiens, UniProt O76074); assay: PDE 5 enzyme inhibition (SPA); assay type: biochemical; conditions: 10^−6 M; PDE 5 from human platelets; cGMP
T2 construct: The fractions containing the enzymatic activities (PDE 3 or PDE 5) were pooled; from tissue; host or cells: human platelets from platelet rich plasma of healthy volunteers
Method: as §1, §2, §3, §4, §5

| Structure (SMILES) | IC50 (PDE 4) [nM] | IC50 [1] [nM] | inhibition at 1 µM (PDE 3) [%] | inhibition at 1 µM (PDE 5) [%] |
| --- | --- | --- | --- | --- |
| COc1ccc2c(Cc3c(Cl)cncc3Cl)nnc(-c3ccccc3)c2c1 [Compound 5, 1-(3,5-Dichloro-pyridin-4-ylmethyl)-6-methoxy-4-phenyl-phthalazine] | 37 ± 6 | 46 ± 15 | 7 | 21 |
| COc1ccc2c(c1)CN(C(C)=O)N=C2Cc1c(Cl)cncc1Cl [Compound 8, 1-[4-(3,5-Dichloro-pyridin-4-ylmethyl)-7-methoxy-1H-phthalazin-2-yl]-ethanone] | 51 ± 7 | 48 ± 14 | 12 | 35 |
| COc1ccc2c(Cc3c(Cl)cncc3Cl)nnc(-n3cncn3)c2c1 [Compound 29, 1-(3,5-Dichloro-pyridin-4-ylmethyl)-6-methoxy-4-[1,2,4]triazol-1-yl-phthalazine] | 241 ± 73 | 73 ± 21 | -4 | 1 |

More lines, now with the values ahead:

| IC50 (PDE 4) [nM] | IC50 [1] [nM] | inhibition at 1 µM (PDE 3) [%] | inhibition at 1 µM (PDE 5) [%] | Structure (SMILES) |
| --- | --- | --- | --- | --- |
| 132 ± 30 | 62 ± 17 | -2 | 1 | COc1ccc2c(Cc3c(Cl)cncc3Cl)nnc(N3CCOCC3)c2c1 [Compound 38, 1(3,5-Dichloro-pyridin-4-ylmethyl)-6-methoxy-4-morpholin-4-yl-phthalazine] |
|  | 9.1 ± 2.9 | -10 | 10 | COc1ccc2c(Cc3c(Cl)cncc3Cl)nnc(N3CCCC3)c2c1 [Compound 49, 1-(3,5-Dichloropyridin-4-ylmethyl)-6-methoxy-4-pyrrolidin-1-yl-phthalazine] |
| 364 ± 67 | 260 ± 44 | -9 | 14 | COc1ccc2c(Cc3c(Cl)cncc3Cl)nnc(CN3CCOCC3)c2c1 [Compound 56, 1-(3,5-Dichloro-pyridin-4-ylmethyl)-6-methoxy-4-morpholin-4-ylmethyl-phthalazine] |
